# In article PMC10653881, “VirB, a key transcriptional regulator of Shigella virulence, requires a CTP ligand for its regulatory activities” (mBio, 2023):
# Molecular target: T1, VirB (VirB-His6) (Shigella flexneri, UniProt P0A247)
# T1 construct: VirB with His6 tag, purified by Monserate Biotechnology Group by an earlier protocol; ParB superfamily protein encoded on the large virulence plasmid pINV; homodimer on DNA
# Experiment: isothermal titration calorimetry
# Assay type: binding
# Details: 25 °C, pH 7.6, 25 mM HEPES, 100 mM NaCl, one set of sites
# T1 sequence (P0A247 whole entry): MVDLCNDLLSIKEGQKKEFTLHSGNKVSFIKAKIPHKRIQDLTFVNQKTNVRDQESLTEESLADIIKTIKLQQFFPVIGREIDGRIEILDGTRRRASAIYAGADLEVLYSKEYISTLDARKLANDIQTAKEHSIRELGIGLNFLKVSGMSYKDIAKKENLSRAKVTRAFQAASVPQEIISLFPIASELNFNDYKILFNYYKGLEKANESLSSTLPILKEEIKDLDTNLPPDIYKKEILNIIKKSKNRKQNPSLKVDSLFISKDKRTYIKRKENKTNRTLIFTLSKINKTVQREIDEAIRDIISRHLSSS
SMILES,"Kd (5 mM MgCl2, 90 µM VirB-His6 (not fully saturated after 13 injections), no DNA) [µM]","Kd (5 mM MgCl2, 45 µM VirB-His6, no DNA) [µM]"
Nc1ccn([C@@H]2O[C@H](COP(=O)(O)OP(=O)(O)OP(O)(O)=S)[C@@H](O)[C@H]2O)c(=O)n1 [CTPγS],14.3 ± 0.5,–
Nc1ccn([C@@H]2O[C@H](COP(=O)(O)OP(=O)(O)OP(=O)(O)O)[C@@H](O)[C@H]2O)c(=O)n1 [CTP],–,9.3 ± 0.4
